# Assays:
# Format in all cases: cell-based, human
# [1] = test system: SR; assay: NCI 60 panel growth inhibition (SRB), leukemia; conditions: 10 μM
# Procedure: (§1) Screening of cytotoxic activity against a panel of sixty human tumor cell lines The selected compounds by NCI were evaluated for their anticancer activity in a two- stage process. […] Then, the output from the single dose screen is reported as a mean graph. […] Assay protocol. […] For a typical screening experiment, cells are inoculated into 96 well microtiter plates in 100 µL at plating densities ranging from 5000 to 40,000 cells/well depending on the doubling time of individual cell lines. […] After 24 h, two plates of each cell line are fixed in situ with TCA, to represent a measurement of the cell population for each cell line at the time of drug addition (Tz). The experimental drugs are solubilized in dimethyl sulfoxide at 400-fold the desired final maximum test concentration and stored frozen prior to use. At the time of drug addition, an aliquot of frozen concentrate is thawed and diluted to twice the desired final maximum test concentration with complete medium containing 50 µg/mL gentamicin. Additional four, 10-fold or ½ log serial dilutions are made to provide a total of five drug concentrations plus control. […] For adherent cells, the assay is terminated by the addition of cold TCA. […] The supernatant is discarded, and the plates are washed five times with tap water and air dried. […] Using the seven absorbance measurements [time zero, (Tz), control growth, (C), and test growth in the presence of drug at the five concentration levels (Ti)], the percentage growth is calculated at each of the drug concentrations levels. Percentage growth inhibition is calculated as: [(Ti Tz)/(C–Tz)] x 100 for concentrations for which Ti>/=Tz and [(Ti-Tz)/Tz] x 100 for concentrations for which Ti < Tz. Three dose response parameters are calculated for each experimental agent. […] The drug concentration resulting in total growth inhibition (TGI) is calculated from Ti = Tz. […] Values are calculated for each of these three parameters if the level of activity is reached; however, if the effect is not reached or is exceeded, the value for that parameter is expressed as greater or less than the maximum or minimum concentration tested.
# [2] = test system: CCRF-CEM; assay: NCI 60 panel growth inhibition (SRB), leukemia; conditions: 10 μM
# Procedure: as §1
# [3] = test system: RPMI-8226; assay: NCI 60 panel growth inhibition (SRB), leukemia; conditions: RPMI-8226, 10 μM
# Procedure: as §1
# [4] = test system: MOLT-4; assay: NCI 60 panel growth inhibition (SRB), leukemia; conditions: MOLT-4, 10 μM
# Procedure: as §1
# [5] = test system: K-562; assay: NCI 60 panel growth inhibition (SRB), leukemia; conditions: K-562, 10 μM
# Procedure: as §1
# [6] = test system: HL-60(TB); assay: NCI 60 panel growth inhibition (SRB), leukemia; conditions: HL-60(TB), 10 μM
# Procedure: as §1
# [7] = test system: HOP-62; assay: NCI 60 panel growth inhibition (SRB), non-small cell lung cancer; conditions: HOP-62, 10 μM
# Procedure: as §1
# [8] = test system: A549/ATCC; assay: as above; conditions: 10 μM
# Procedure: as §1
# [9] = test system: EKVX; assay: as above; conditions: 10 μM
# Procedure: as §1
# [10] = test system: NCI-H522; assay: as above; conditions: NCI-H522, 10 μM
# Procedure: as §1
# [11] = test system: NCI-H460; assay: as above; conditions: NCI-H460, 10 μM
# Procedure: as §1
# [12] = test system: NCI-H322M; assay: as above; conditions: 10 μM
# Procedure: as §1
# [13] = test system: NCI-H23; assay: as above; conditions: NCI-H23, 10 μM
# Procedure: as §1
# [14] = test system: NCI-H226; assay: as above; conditions: NCI-H226, 10 μM
# Procedure: as §1
# [15] = test system: OVCAR-5; assay: NCI 60 panel growth inhibition (SRB), ovarian cancer; conditions: OVCAR-5, 10 μM
# Procedure: as §1
# [16] = test system: OVCAR-4; assay: as above; conditions: OVCAR-4, 10 μM
# Procedure: as §1
# [17] = test system: SK-OV-3; assay: as above; conditions: SK-OV-3, 10 μM
# Procedure: as §1
# [18] = test system: IGROV1; assay: as above; conditions: IGROV1, 10 μM
# Procedure: as §1
# [19] = test system: OVCAR-3; assay: as above; conditions: OVCAR-3, 10 μM
# Procedure: as §1
# [20] = test system: NCI/ADR-RES; assay: as above; conditions: 10 μM
# Procedure: as §1
# [21] = test system: OVCAR-8; assay: as above; conditions: OVCAR-8, 10 μM
# Procedure: as §1
# [22] = test system: SNB-19; assay: NCI 60 panel growth inhibition (SRB), CNS cancer; conditions: SNB-19, 10 μM
# Procedure: as §1
# [23] = test system: SF-539; assay: NCI 60 panel growth inhibition (SRB), CNS cancer; conditions: SF-539, 10 μM
# Procedure: as §1
# [24] = test system: SNB-75; assay: NCI 60 panel growth inhibition (SRB), CNS cancer; conditions: SNB-75, 10 μM
# Procedure: as §1
# [25] = test system: SF-268; assay: NCI 60 panel growth inhibition (SRB), CNS cancer; conditions: SF-268, 10 μM
# Procedure: as §1
# [26] = test system: SF-295; assay: NCI 60 panel growth inhibition (SRB), CNS cancer; conditions: SF-295, 10 μM
# Procedure: as §1
# [27] = test system: HCT-116; assay: NCI 60 panel growth inhibition (SRB), colon cancer; conditions: HCT-116, 10 μM
# Procedure: as §1
# [28] = test system: HCC-2998; assay: NCI 60 panel growth inhibition (SRB), colon cancer; conditions: HCC-2998, 10 μM
# Procedure: as §1
# [29] = test system: COLO 205; assay: NCI 60 panel growth inhibition (SRB), colon cancer; conditions: COLO 205, 10 μM
# Procedure: as §1
# [30] = test system: SW-620; assay: NCI 60 panel growth inhibition (SRB), colon cancer; conditions: SW-620, 10 μM
# Procedure: as §1
# [31] = test system: HCT-15; assay: NCI 60 panel growth inhibition (SRB), colon cancer; conditions: HCT-15, 10 μM
# Procedure: as §1
# [32] = test system: KM12; assay: NCI 60 panel growth inhibition (SRB), colon cancer; conditions: KM12, 10 μM
# Procedure: as §1
# [33] = test system: NCI 60 cancer cell line panel; assay: NCI 60 panel growth inhibition (SRB), whole panel; conditions: mean over NCI 60 panel, 10 μM
# Procedure: as §1
# [34] = test system: HOP-92; assay: NCI 60 panel growth inhibition (SRB), non-small cell lung cancer; conditions: HOP-92, 10 μM
# Procedure: as §1
Structure (SMILES),GI% [2],GI% [3],GI% [4],GI% [5],GI% [6],GI% [8],GI% [9],GI% [10],GI% [11],GI% [12],GI% [13],GI% [14],GI% [15],GI% [18],GI% [19],GI% [20],GI% [21],GI% [22],GI% [23],GI% [24],also measured
"O=C(COc1ccccc1-c1nc2ccccc2s1)NN=C1C(=O)Nc2ccc(Cl)cc21 [Compound 9e, 2-(2-(Benzo[d]thiazol-2-yl)phenoxy)-N′-(5-chloro-2-oxoindolin-3-ylidene)acetohydrazide]",–^a (GI% < 5%),– (GI% < 5%),– (GI% < 5%),– (GI% < 5%),– (GI% < 5%),– (GI% < 5%),53.99%,11.15%,– (GI% < 5%),– (GI% < 5%),7.05%,11.52%,– (GI% < 5%),– (GI% < 5%),– (GI% < 5%),6.89%,– (GI% < 5%),– (GI% < 5%),– (GI% < 5%),– (GI% < 5%),GI% [1]: 6.46%; GI% [7]: – (GI% < 5%); GI% [16]: – (GI% < 5%); GI% [17]: – (GI% < 5%); GI% [25]: – (GI% < 5%); GI% [26]: – (GI% < 5%); GI% [27]: – (GI% < 5%); GI% [28]: – (GI% < 5%); GI% [29]: – (GI% < 5%); GI% [30]: – (GI% < 5%); GI% [31]: – (GI% < 5%); GI% [32]: – (GI% < 5%)
"COc1cccc(-c2nc3ccccc3s2)c1OCC(=O)NN=C1C(=O)Nc2ccc(Cl)cc21 [Compound 9k, 2-(2-(Benzo[d]thiazol-2-yl)-6-methoxyphenoxy)-N′-(5-chloro-2-oxoindolin-3-ylidene)acetohydrazide]",24.47%,29.96%,43.70%,29.20%,6.09%,26.29%,66.74%,28.39%,8.94%,– (GI% < 5%),17.71%,18.20%,8.99%,– (GI% < 5%),– (GI% < 5%),20.56%,12.69%,– (GI% < 5%),30.36%,– (GI% < 5%),GI% [1]: 17.83%; GI% [7]: 6.81%; Mean GI% [33]: 14.92%; GI% [16]: 13.16%; GI% [17]: – (GI% < 5%); GI% [25]: – (GI% < 5%); GI% [26]: 38.31%; GI% [27]: 13.42%; GI% [28]: – (GI% < 5%); GI% [29]: – (GI% < 5%); GI% [30]: – (GI% < 5%); GI% [31]: 31.91%; GI% [32]: 22.47%
"COc1cccc(-c2nc3ccccc3s2)c1OCC(=O)NN=C1C(=O)Nc2ccc(Br)cc21 [Compound 9l, 2-(2-(Benzo[d]thiazol-2-yl)-6-methoxyphenoxy)-N′-(5-bromo-2-oxoindolin-3-ylidene)acetohydrazide]",15.16%,25.41%,36.40%,18.70%,– (GI% < 5%),17.13%,66.66%,25.73%,5.26%,– (GI% < 5%),17.03%,12.06%,– (GI% < 5%),11.35%,– (GI% < 5%),19.73%,10.38%,– (GI% < 5%),9.75%,10.42%,GI% [1]: 16.68%; GI% [7]: 13.44%; Mean GI% [33]: 12.52%; GI% [16]: 11.40%; GI% [17]: – (GI% < 5%); GI% [25]: 8.60%; GI% [26]: 33.14%; GI% [27]: 7.62%; GI% [28]: – (GI% < 5%); GI% [29]: – (GI% < 5%); GI% [30]: – (GI% < 5%); GI% [31]: 21.00%; GI% [32]: 12.55%
"COc1ccc(-c2nc3ccccc3s2)cc1OCC(=O)NN=C1C(=O)Nc2ccc(C)cc21 [Compound 9n, 2-(5-(Benzo[d]thiazol-2-yl)-2-methoxyphenoxy)-N′-(5-methyl-2-oxoindolin-3-ylidene)acetohydrazide]",16.11%,14.26%,13.07%,6.70%,– (GI% < 5%),– (GI% < 5%),– (GI% < 5%),– (GI% < 5%),– (GI% < 5%),10.32%,12.32%,– (GI% < 5%),7.10%,– (GI% < 5%),– (GI% < 5%),14.31%,– (GI% < 5%),– (GI% < 5%),11.49%,– (GI% < 5%),GI% [7]: – (GI% < 5%); GI% [34]: – (GI% < 5%); GI% [17]: – (GI% < 5%); GI% [25]: 5.27%; GI% [26]: – (GI% < 5%); GI% [27]: – (GI% < 5%); GI% [28]: – (GI% < 5%); GI% [29]: – (GI% < 5%); GI% [30]: 6.33%; GI% [31]: 9.62%; GI% [32]: – (GI% < 5%)
"COc1ccc(-c2nc3ccccc3s2)cc1OCC(=O)NN=C1C(=O)Nc2ccc(Br)cc21 [Compound 9r, 2-(5-(Benzo[d]thiazol-2-yl)-2-methoxyphenoxy)-N′-(5-bromo-2-oxoindolin-3-ylidene)acetohydrazide]",42.87%,19.17%,13.12%,24.52%,– (GI% < 5%),7.78%,7.18%,8.27%,– (GI% < 5%),– (GI% < 5%),20.81%,10.50%,– (GI% < 5%),– (GI% < 5%),– (GI% < 5%),27.04%,38.56%,48.19%,21.62%,– (GI% < 5%),GI% [1]: – (GI% < 5%); GI% [34]: 32.33%; Mean GI% [33]: 10.08%; GI% [16]: – (GI% < 5%); GI% [25]: – (GI% < 5%); GI% [26]: – (GI% < 5%); GI% [27]: 30.23%; GI% [28]: – (GI% < 5%); GI% [30]: 7.61%; GI% [31]: – (GI% < 5%); GI% [32]: – (GI% < 5%)

# Reference: publication PMC11396129, “Oxindole–benzothiazole hybrids as CDK2 inhibitors and anticancer agents: design, synthesis and biological evaluation” (BMC Chemistry, 2024)
